# Measurements: patent publication US10214478B2, “Amantadine nitrate compounds with neural protective effect, and preparation and medical use thereof” (GUANGZHOU MAGPIE PHARMACEUTICALS CO., LTD., priority 2016, dated 2019)
# Test system: primary cerebellum granule cells of rats
# Test: Protective effects of compounds on primary cerebellum granule cells of rats (glutamate-induced excitotoxic injury, MTT)
# Assay type: cell-based
# Details: pre-protection 2 h, 200 iM glutamate 24 h, MTT cell viability; read-out: EC50, protective effects of the compounds on rat's nerve cells
# Protocol: Isolated primary cerebellum granule cells of infant rats were inoculated in 96-well plates with 1.2×10^5/well by using 10% FBS+25 mM KCl+2 mM Glutamine+1% of double-antibody BME medium. After 24 hours, cytarabine with a final concentration of 10 iM was added to inhibit the proliferation of neurogliocyte cells. After the day 4, glucose with the final concentration of 5 mM was added every four days to complement energy metabolism and water evaporation of cells. The materials were placed in a cell incubator (37° C., 5% CO2) to be cultured for 10 days. […] After pre-protection for 2 h, 200 iM of glutamate was added to induce cell damage for 24 h, and then MTT was added to culture for 4 h. The supernatant fraction was sucked, and 150 iL of DMSO was added to each well for dissolving. After blending with shaking, the light absorption values under 570 nm wavelength was measured with a microplate reader, and the viability of cells was calculated. Cell viability (%)=absorbance of different groups/absorbance of the normal control group×100%.
row,SMILES,EC50 [µM]
1,CC12CC3CC(N)(C1)CC(O[N+](=O)[O-])(C3)C2 (stereo not shown) [NM-001],24.6
2,CCC12CC3CC(N)(C1)CC(O[N+](=O)[O-])(C3)C2 (stereo not shown) [NM-003],15.4
3,CCC12CC3CC(N)(C1)CC(CO[N+](=O)[O-])(C3)C2 (stereo not shown) [NM-004],8.12
4,CCC12CC3CC(N)(C1)CC(CCCO[N+](=O)[O-])(C3)C2 (stereo not shown) [NM-005],6.06
5,NC12CC3CC(CCO[N+](=O)[O-])(C1)CC(CCO[N+](=O)[O-])(C3)C2 [NM-009],5.2
6,CC(CO[N+](=O)[O-])CC12CC3CC(N)(C1)CC(CC(C)CO[N+](=O)[O-])(C3)C2 (stereo not shown) [NM-012],9.3
7,"CCC12CC3(N)CC(CC)(C1)CC(O[N+](=O)[O-])(C3)C2 [YQW-036, reference compound]",31.4
